Results on eleven compounds are retold here after patent publication US10364247B2, “Preparation and use of novel protein kinase inhibitors” (Ruijin Hospital Affiliated to Shanghai Jiao Tong University …, priority 2015, dated 2019).

Holding throughout (assay type): cell-based, murine
One assay addresses T1, BaF3-BCR/ABL (Homo sapiens, UniProt P00519).
T1 construct: fused on or other part: P11274 (Breakpoint cluster region protein)
In words: Antiproliferative activity, kinase-dependent Ba/F3 cells (MTT/MTS). The settings on record: 48 hours, cell viability, read-out: BCR/ABL IC50. The method, then: (§1) Following up on the kinome data, the ability of compounds disclosed in the present invention to inhibit proliferation of cells that are dependent on selected protein kinases was tested. […] In addition, compounds were assayed to measure their capacity to inhibit TIE1, LYN, EML4-ALK, INSR and HCK kinases.
(§2) The murine cell line used is the BaF/3 cell line transformed with BCR/ABL cDNA (BaF/3-p210) or BCR/ABL-T315I mutant (Ba/F3-p210-T315I). These cells are maintained in RPMI/10% fetal calf serum (RPMI/FCS) supplemented with penicillin 50 μg/mL, streptomycin 50 μg/mL and L-glutamine […]. Untransformed BaF/3 cells (Wt-BaF/3) are similarly maintained with the addition of 15% of WEHI conditioned medium as a source of IL3.
(§3) Cells were seeded at a density of 20,000 cells/well into 96-well plates.
(§4) The background control wells to which media with no cells added and the vehicle control wells were included on each plate in triplicate. Cell viability was determined using MTT (Sigma, St. Louis, Mo., USA) and MTS (Promega, Madison, Wis., USA), according to the manufacturer's instructions. Results were analyzed using GraphPad Prism 5.0 (GraphPad Software, San Diego, Calif.) and IC50 values were calculated from cell viability dose-response curves and defined as the concentration of compound needed to reduce cell viability to 50% of a vehicle control (DMSO) (Table 3).

The target in the next assay is T2, BaF3-BCR/ABL-T315I (Homo sapiens, UniProt P00519, T315I, cells depend on it).
T2 construct: fused on or other part: P11274 (Breakpoint cluster region protein)
The description is as above. Particulars: 48 hours, cell viability, read-out: BCR/ABL T315I IC50. The method, then:
as §1, §2, §3, §4

A further assay deals with T3, BaF3-EML4-ALK (Homo sapiens, UniProt Q9UM73).
T3 construct: fused on or other part: Q9HC35 (Echinoderm microtubule-associated protein-like 4)
The assay is described as above. Particulars: 48 hours, cell viability, read-out: EML4-ALK IC50. The method, then: as §1, §2, §3, §4
(§5) Cell proliferation assays of compounds of the invention against TIE1, LYN, EML4-ALK, INSR and Hck were conducted using identical methods as described above for BCR/ABL, except that BaF3-TEL-TIE1, BaF3-TEL-LYN, BaF3-EML4-ALK, BaF3-TEL-INSR, and BaF3-TEL-HCK are used instead of BaF3-BCR/ABL (Table 3 and 4).

For a further assay, the target named is T4, BaF3-TEL-HCK (Homo sapiens, UniProt P08631).
T4 construct: fused on or other part: P41212 (Transcription factor ETV6)
The assay is described as above. Particulars: 48 hours, cell viability, read-out: Tel-HCK IC50. How it is done:
as §1, §2, §3, §4, §5

A further assay has as its target T5, BaF3-TEL-LYN (Homo sapiens, UniProt P07948).
T5 construct: fused on or other part: P41212 (Transcription factor ETV6)
Described as above. Particulars: 48 hours, cell viability, read-out: tel-LYN IC50. The method, then: as §1, §2, §3, §4, §5

The target of the next assay is T6, BaF3-TEL-TIE1 (Homo sapiens, UniProt P35590).
T6 construct: fused on or other part: P41212 (Transcription factor ETV6)
The assay is described as above. The settings on record: 48 hours, cell viability, read-out: tel-TIE1 IC50. How it is done: as §1, §2, §3, §4, §5

Another assay concerns BaF3-KRASD12. The experiment in a line: Oncogenic RAS dependent cell proliferation (CellTiter Glo). The settings on record: Mus musculus, BaF3-KRASD12 cells, 48 hours, read-out: KRas-BaF3 IC50. How it is done: (§6) The BaF/3 cell line transformed with oncogenic NRAS or KRAS (BaF/3-NRASD12 or BaF/3-KRASD12) and the parental BaF/3 cells were used to measure the abilities of compounds of the invention to suppress RAS transformation (Table 5). Cells were seeded at a density of 5000 cells/well into 96-well plates. […] The background control wells to which media with no cells added and the vehicle control wells were included on each plate in triplicate. Cell viability was determined using CellTiter Glo Assay (Promega) according to manufacture's instruction with a minor modification of diluting 1 part CellTiter Glo reagent to 4 parts phosphate buffered saline (PBS) before use. The luminescence value was read out by an Envision (PerkinElmer).

The next assay relates to BaF3-NRASD12. Described as above. The settings on record: Mus musculus, BaF3-NRASD12 cells, 48 hours, read-out: NRas-BaF3 IC50. The method, then: as §6
The next assay deals with Wt-BaF3. In words: Parental Ba/F3 cell proliferation (CellTiter Glo). The settings on record: Mus musculus, parental BaF/3 cells, 48 hours. The method, then: as §2, §6

T6 sequence (P35590 whole entry, change not shown, the tested form may be a part): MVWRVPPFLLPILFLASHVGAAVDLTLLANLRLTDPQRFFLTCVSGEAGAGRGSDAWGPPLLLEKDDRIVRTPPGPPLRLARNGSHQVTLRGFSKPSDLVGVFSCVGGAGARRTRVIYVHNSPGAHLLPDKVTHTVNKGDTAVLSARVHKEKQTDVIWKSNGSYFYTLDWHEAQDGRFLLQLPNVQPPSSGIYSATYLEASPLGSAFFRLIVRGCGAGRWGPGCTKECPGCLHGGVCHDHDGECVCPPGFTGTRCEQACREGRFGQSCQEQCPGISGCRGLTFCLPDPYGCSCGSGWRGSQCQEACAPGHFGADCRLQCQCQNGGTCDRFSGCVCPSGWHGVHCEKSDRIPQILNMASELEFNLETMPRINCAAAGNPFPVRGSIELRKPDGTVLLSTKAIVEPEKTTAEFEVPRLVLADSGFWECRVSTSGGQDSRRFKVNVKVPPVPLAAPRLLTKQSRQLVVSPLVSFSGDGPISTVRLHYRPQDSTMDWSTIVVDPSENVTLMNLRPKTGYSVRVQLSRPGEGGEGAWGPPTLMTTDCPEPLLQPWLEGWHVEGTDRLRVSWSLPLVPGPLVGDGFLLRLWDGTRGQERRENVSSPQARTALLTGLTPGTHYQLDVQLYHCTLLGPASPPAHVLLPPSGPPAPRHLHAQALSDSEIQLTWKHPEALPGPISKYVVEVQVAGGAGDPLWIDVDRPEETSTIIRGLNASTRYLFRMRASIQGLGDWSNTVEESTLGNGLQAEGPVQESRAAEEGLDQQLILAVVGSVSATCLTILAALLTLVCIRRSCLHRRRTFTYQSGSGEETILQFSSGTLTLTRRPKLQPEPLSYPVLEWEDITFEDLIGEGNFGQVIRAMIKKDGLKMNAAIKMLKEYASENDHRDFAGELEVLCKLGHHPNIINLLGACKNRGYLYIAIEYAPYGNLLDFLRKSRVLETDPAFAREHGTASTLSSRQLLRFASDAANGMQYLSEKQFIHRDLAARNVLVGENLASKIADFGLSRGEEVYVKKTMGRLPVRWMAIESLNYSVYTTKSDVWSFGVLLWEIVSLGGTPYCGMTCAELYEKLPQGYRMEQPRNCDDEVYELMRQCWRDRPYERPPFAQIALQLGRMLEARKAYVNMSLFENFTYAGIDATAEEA
T3 sequence (Q9UM73 whole entry, change not shown, the tested form may be a part): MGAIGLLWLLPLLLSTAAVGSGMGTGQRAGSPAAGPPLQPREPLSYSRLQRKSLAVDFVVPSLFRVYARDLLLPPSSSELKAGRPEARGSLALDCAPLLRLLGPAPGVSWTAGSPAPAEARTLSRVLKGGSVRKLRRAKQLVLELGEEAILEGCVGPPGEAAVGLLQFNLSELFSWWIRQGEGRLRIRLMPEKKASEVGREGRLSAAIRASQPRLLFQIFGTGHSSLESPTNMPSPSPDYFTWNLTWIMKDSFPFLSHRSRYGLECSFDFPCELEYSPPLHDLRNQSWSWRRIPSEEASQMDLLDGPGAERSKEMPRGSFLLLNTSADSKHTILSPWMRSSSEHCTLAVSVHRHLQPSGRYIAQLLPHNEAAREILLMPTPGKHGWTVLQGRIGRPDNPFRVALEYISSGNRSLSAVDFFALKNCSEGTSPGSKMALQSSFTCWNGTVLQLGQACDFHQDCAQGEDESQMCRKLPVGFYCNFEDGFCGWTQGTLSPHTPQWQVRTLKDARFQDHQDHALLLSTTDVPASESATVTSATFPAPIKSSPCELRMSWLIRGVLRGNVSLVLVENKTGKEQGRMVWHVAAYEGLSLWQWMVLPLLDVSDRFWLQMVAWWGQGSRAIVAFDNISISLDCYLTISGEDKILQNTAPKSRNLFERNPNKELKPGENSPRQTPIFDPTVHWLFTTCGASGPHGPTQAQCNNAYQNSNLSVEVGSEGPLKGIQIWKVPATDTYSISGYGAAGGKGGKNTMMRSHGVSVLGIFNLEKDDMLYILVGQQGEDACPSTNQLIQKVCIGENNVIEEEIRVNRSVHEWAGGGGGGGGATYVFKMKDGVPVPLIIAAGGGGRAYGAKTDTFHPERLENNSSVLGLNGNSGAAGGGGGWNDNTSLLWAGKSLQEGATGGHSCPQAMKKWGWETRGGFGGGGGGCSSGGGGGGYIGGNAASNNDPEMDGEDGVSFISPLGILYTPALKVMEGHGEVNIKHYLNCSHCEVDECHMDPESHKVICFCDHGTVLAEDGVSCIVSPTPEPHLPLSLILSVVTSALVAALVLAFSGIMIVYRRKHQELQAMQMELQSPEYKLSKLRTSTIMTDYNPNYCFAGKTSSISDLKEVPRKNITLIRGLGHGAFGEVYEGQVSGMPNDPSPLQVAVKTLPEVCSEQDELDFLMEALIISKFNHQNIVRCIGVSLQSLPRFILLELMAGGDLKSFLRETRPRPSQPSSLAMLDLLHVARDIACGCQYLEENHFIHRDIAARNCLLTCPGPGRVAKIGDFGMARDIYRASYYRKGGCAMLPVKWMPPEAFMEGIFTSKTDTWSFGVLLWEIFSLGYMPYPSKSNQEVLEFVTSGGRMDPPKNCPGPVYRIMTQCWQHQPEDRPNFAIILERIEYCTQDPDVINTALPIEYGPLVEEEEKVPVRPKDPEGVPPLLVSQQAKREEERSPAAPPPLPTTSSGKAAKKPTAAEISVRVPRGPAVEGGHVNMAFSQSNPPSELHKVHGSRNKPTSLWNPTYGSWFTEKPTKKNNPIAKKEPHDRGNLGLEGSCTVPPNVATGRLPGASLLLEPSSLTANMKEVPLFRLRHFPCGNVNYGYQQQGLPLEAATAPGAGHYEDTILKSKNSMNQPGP
T5 sequence (P07948 whole entry, change not shown, the tested form may be a part): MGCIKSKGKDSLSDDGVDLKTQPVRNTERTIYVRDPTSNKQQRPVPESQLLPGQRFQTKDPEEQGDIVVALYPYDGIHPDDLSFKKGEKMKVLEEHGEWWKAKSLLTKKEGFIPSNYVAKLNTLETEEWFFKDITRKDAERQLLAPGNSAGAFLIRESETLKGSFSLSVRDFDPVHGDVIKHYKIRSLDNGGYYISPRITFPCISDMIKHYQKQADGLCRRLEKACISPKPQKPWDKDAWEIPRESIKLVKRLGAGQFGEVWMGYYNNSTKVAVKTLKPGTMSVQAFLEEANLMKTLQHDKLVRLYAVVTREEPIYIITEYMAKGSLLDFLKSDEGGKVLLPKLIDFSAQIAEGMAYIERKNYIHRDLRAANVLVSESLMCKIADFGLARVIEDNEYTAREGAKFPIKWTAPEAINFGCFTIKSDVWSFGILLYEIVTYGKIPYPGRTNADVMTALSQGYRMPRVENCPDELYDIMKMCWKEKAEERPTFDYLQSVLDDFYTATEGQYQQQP
T4 sequence (P08631 whole entry, change not shown, the tested form may be a part): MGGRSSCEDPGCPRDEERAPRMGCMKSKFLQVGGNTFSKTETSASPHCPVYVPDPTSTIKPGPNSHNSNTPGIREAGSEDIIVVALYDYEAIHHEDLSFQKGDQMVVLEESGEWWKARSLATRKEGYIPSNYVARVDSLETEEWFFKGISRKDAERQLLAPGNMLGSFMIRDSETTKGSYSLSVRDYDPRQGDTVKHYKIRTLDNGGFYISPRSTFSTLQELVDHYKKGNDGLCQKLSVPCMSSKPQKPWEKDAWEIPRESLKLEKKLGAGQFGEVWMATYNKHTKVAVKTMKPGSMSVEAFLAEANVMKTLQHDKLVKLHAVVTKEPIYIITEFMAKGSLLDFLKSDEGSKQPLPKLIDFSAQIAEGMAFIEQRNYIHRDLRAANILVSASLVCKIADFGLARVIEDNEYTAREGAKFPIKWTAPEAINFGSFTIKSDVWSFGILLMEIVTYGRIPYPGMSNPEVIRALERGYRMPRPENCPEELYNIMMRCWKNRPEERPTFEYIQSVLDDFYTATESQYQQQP

By IC50 is commonly meant the concentration that inhibits the measured activity by half. As to `Cc1ccc(NC(=O)c2cccc(C(F)(F)F)c2)cc1N1Cc2cnc(Nc3cnn(C)c3)nc2N(C)C1` [IA-10, N-(4-methyl-3-(1-methyl-7-((1-methyl-1H-pyrazol-4-yl)amino)-1,4-dihydropyrimido[4,5-d]pyrimidin-3(2H)-yl)phenyl)-3-(trifluoromethyl)benzamide], the GI50 worked out at 0.000251 µM at BaF3-BCR/ABL; 2.76 µM on BaF3-BCR/ABL-T315I; 4.64 µM at BaF3-EML4-ALK; 1.77 µM at BaF3-TEL-HCK; 1.43 µM on BaF3-TEL-LYN; 2.32 µM at BaF3-TEL-TIE1. Moreover, the IC50 was 4.6 µM in the assay on BaF3-KRASD12, 2.9 µM with BaF3-NRASD12 and 11.8 µM in the assay with Wt-BaF3.
As to `Cc1ccc(Nc2ncc3c(n2)N(C2CCCC2)CN(c2cc(NC(=O)c4cccc(C(F)(F)F)c4)ccc2C)C3)cn1` [IB-3, N-(3-(1-cyclopentyl-7-((6-methylpyridin-3-yl)amino)-1,4-dihydropyrimido[4,5-d]pyrimidin-3(2H)-yl)-4-methylphenyl)-3-(trifluoromethyl)benzamide], the GI50 came out at 0.303 µM on BaF3-BCR/ABL; 9.23 µM on BaF3-BCR/ABL-T315I; 5.88 µM on BaF3-EML4-ALK; 3.15 µM at BaF3-TEL-HCK; 3.3 µM at BaF3-TEL-LYN; 3.82 µM on BaF3-TEL-TIE1. Also, the IC50 with BaF3-KRASD12 is 5.83 µM; with BaF3-NRASD12, 5.97 µM; with Wt-BaF3, 9.71 µM.
Turning to `Cc1ccc(Nc2ncc3c(n2)N(C)CN(c2cc(C(=O)NCCO)ccc2C)C3)cn1` [IC-2, N-(2-hydroxyethyl)-4-methyl-3-(1-methyl-7-((6-methylpyridin-3-yl)amino)-1,4-dihydropyrimido[4,5-d]pyrimidin-3(2H)-yl)benzamide], the GI50 at BaF3-BCR/ABL was 6.36 µM; at BaF3-BCR/ABL-T315I, over 10 µM; on BaF3-EML4-ALK, over 10 µM; on BaF3-TEL-LYN, over 10 µM; at BaF3-TEL-TIE1, over 10 µM. Also, the IC50 in the assay with BaF3-KRASD12, in the assay on BaF3-NRASD12 and in the assay on Wt-BaF3 was over 10 µM in each case.
Consider `CONC(=O)c1ccc(C)c(N2Cc3cnc(Nc4ccc(C)nc4)nc3N(C)C2)c1` [IC-4, N-methoxy-4-methyl-3-(1-methyl-7-((6-methylpyridin-3-yl)amino)-1,4-dihydropyrimido[4,5-d]pyrimidin-3(2H)-yl)benzamide], for which the GI50 is 0.0631 µM at BaF3-BCR/ABL; over 10 µM at BaF3-BCR/ABL-T315I; over 10 µM on BaF3-EML4-ALK; over 10 µM at BaF3-TEL-LYN; over 10 µM on BaF3-TEL-TIE1. Also, the IC50 in the assay with BaF3-KRASD12, in the assay on BaF3-NRASD12 and in the assay with Wt-BaF3 was over 10 µM each time.
For `Cc1ccc(NC(=O)c2cccc(C(F)(F)F)c2)cc1N1Cc2cnc(N[C@@H](C)CO)nc2N(C)C1` [IA-8, (S)—N-(3-(7-((1-hydroxypropan-2-yl)amino)-1-methyl-1,4-dihydropyrimido[4,5-d]pyrimidin-3(2H)-yl)-4-methylphenyl)-3-(trifluoromethyl)benzamide], the GI50 was 1.94 µM on BaF3-BCR/ABL; over 10 µM at BaF3-BCR/ABL-T315I; 9.22 µM at BaF3-EML4-ALK; 2.5 µM on BaF3-TEL-LYN; 3.65 µM at BaF3-TEL-TIE1. The IC50 is 7.57 µM in the assay on BaF3-KRASD12, 5.21 µM with BaF3-NRASD12 and 17.9 µM in the assay on Wt-BaF3.
As to `Cc1ccc(NC(=O)c2cccc(C(F)(F)F)c2)cc1N1Cc2cnc(NCCc3c[nH]cn3)nc2N(C)C1` [IA-6, N-(3-(7-((2-(1H-imidazol-4-yl)ethyl)amino)-1-methyl-1,4-dihydropyrimido[4,5-d]pyrimidin-3(2H)-yl)-4-methylphenyl)-3-(trifluoromethyl)benzamide], the GI50 was 2.22 µM on BaF3-BCR/ABL; 4.45 µM on BaF3-BCR/ABL-T315I; about 3.36 µM at BaF3-EML4-ALK; about 3.21 µM on BaF3-TEL-LYN; 3.7 µM on BaF3-TEL-TIE1. Also, the results for the IC50 with BaF3-KRASD12, in the assay on BaF3-NRASD12 and with Wt-BaF3 were 5.53 µM, 5.5 µM and 5.14 µM, respectively.
As to `Cc1ccc(Nc2ncc3c(n2)N(c2ccccc2)CN(c2cc(NC(=O)c4cccc(C(F)(F)F)c4)ccc2C)C3)cn1` [IB-4, N-(4-methyl-3-(7-((6-methylpyridin-3-yl)amino)-1-phenyl-1,4-dihydropyrimido[4,5-d]pyrimidin-3(2H)-yl)phenyl)-3-(trifluoromethyl)benzamide], the GI50 on BaF3-BCR/ABL was 0.669 µM; at BaF3-EML4-ALK, over 10 µM; on BaF3-TEL-HCK, 4.61 µM; at BaF3-TEL-LYN it was 4.11 µM; on BaF3-TEL-TIE1 it was 3.68 µM. The results for the IC50 in the assay with BaF3-KRASD12, in the assay on BaF3-NRASD12 and with Wt-BaF3 were 5.36 µM, 4.93 µM and 17.1 µM, respectively.
Take `CNc1ncc2c(n1)N(C)CN(c1cc(NC(=O)c3cccc(C(F)(F)F)c3)ccc1C)C2` [IA-3, N-(4-methyl-3-(1-methyl-7-(methylamino)-1,4-dihydropyrimido[4,5-d]pyrimidin-3(2H)-yl)phenyl)-3-(trifluoromethyl)benzamide]: the GI50 was 1.04 µM on BaF3-BCR/ABL; over 10 µM on BaF3-BCR/ABL-T315I; 6.34 µM at BaF3-EML4-ALK; 4.09 µM on BaF3-TEL-LYN; 5.47 µM on BaF3-TEL-TIE1. Also, the values for the IC50 in the assay on BaF3-KRASD12, in the assay with BaF3-NRASD12 and in the assay with Wt-BaF3 were 6.47 µM, 11.5 µM and 12.5 µM, respectively.
With `Cc1ccc(NC(=O)c2cccc(C(F)(F)F)c2)cc1N1Cc2cnc(NC3CCN(C)CC3)nc2N(C)C1` [IA-1, N-(4-methyl-3-(1-methyl-7-((1-methylpiperidin-4-yl)amino)-1,4-dihydropyrimido[4,5-d]pyrimidin-3(2H)-yl)phenyl)-3-(trifluoromethyl)benzamide], the GI50 at BaF3-BCR/ABL was 4.28 µM; at BaF3-BCR/ABL-T315I, 4.15 µM; at BaF3-EML4-ALK it was 1.53 µM; at BaF3-TEL-LYN it was about 2.79 µM; on BaF3-TEL-TIE1, 1.75 µM. In addition, the IC50 worked out at 10.1 µM in the assay with BaF3-KRASD12, 5.22 µM in the assay on BaF3-NRASD12 and 8.83 µM in the assay on Wt-BaF3.
For the compound `Cc1ccc(NC(=O)c2cccc(C(F)(F)F)c2)cc1N1Cc2cnc(N[C@H](C)CO)nc2N(C)C1` [IA-7, (R)—N-(3-(7-((1-hydroxypropan-2-yl)amino)-1-methyl-1,4-dihydropyrimido[4,5-d]pyrimidin-3(2H)-yl)-4-methylphenyl)-3-(trifluoromethyl)benzamide], the GI50 on BaF3-BCR/ABL was 0.665 µM; at BaF3-BCR/ABL-T315I, over 10 µM; at BaF3-EML4-ALK it was 7.47 µM; on BaF3-TEL-LYN it was 4.48 µM; on BaF3-TEL-TIE1, 4.22 µM. The IC50 in the assay with BaF3-KRASD12 was 8.1 µM; in the assay on BaF3-NRASD12 it was 8.28 µM; in the assay on Wt-BaF3 it was 24.4 µM.
For `Cc1ccc(Nc2ncc3c(n2)N(C)CN(c2cc(C(=O)NCCN4CCOCC4)ccc2C)C3)cn1` [IC-3, 4-methyl-3-(1-methyl-7-((6-methylpyridin-3-yl)amino)-1,4-dihydropyrimido[4,5-d]pyrimidin-3(2H)-yl)-N-(2-morpholinoethyl)benzamide], the GI50 at BaF3-BCR/ABL is 0.217 µM; at BaF3-BCR/ABL-T315I, over 10 µM; on BaF3-EML4-ALK, over 10 µM; at BaF3-TEL-LYN it was over 10 µM; on BaF3-TEL-TIE1 it was over 10 µM. Further, the IC50 in the assay on BaF3-KRASD12, with BaF3-NRASD12 and in the assay with Wt-BaF3 was over 10 µM throughout.
